Entries after “also recorded” stand apart in the source; their conditions may differ.
Legend:
[1] = biological target: T1, PPI between PRRSV GP4 and CD163-SRCR5 domain (Sus scrofa, UniProt Q2VL90); experiment: BiFC assay GP4/SRCR5; assay type: cell-based, porcine CD163; PRRSV VR2332; details: for Average GP4 (relative fluorescence intensity, SRCR5/GP4 BiFC): 5 μM, HEK293T, 24 h after transfection, relative to NC (DMSO), n=3
T1 construct: SRCR5 domain of porcine CD163 receptor was amplified from cDNA of pig cells; expressed in transfected cells; host or cells: HEK293T
T1 sequence (Q2VL90 477-577): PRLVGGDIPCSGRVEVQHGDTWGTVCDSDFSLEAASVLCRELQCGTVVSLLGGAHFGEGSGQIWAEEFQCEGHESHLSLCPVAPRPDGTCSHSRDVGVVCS
Experimental: (§1) HEK293T cells were cultivated in 6-well plates in FP medium and transfected with 1 μg XpBiFC-VN155 (I152L)-SRCR5 and 1 μg pBiFC-VC155-GP2/GP4 using Fugene6. After 4 h, cells were digested with 0.05% Typsin-EDTA (ThermoFisher Scientific, MA, USA)) and passaged to 48-well plates which were coated with EmbryoMax 0.1% Gelatin Solution (Sigma-Aldrich, MO, USA) and preloaded with 5 μM B7 analogues. Fluorescence images were taken at 24 h after transfection and fluorescence intensity was measured by image J.

[2] = biological target: T2, PPI between PRRSV glycoprotein GP2a and CD163-SRCR5 (Sus scrofa, UniProt Q2VL90); experiment: BiFC assay GP2a/SRCR5; assay type: cell-based, porcine CD163; PRRSV VR2332; details: 5 μM; for Average GP2a (relative fluorescence intensity, SRCR5/GP2a BiFC): HEK293T, 24 h after transfection, relative to NC (DMSO) = 1.00, n=3
T2 construct: SRCR5 domain of porcine CD163 receptor was amplified from cDNA of pig cells; expressed in transfected cells; host or cells: HEK293T
T2 sequence (Q2VL90 477-577): as above
Experimental: as §1

[3] = system: PRRSV strains NADC30, VR-2332 and Lelystad; experiment: PRRSV infection assay in PAMs, qRT-PCR for PRRSV; assay type: cell-based; details: for inhibitory effect against PRRSV infection (in words): 15 μM, PAMs, qRT-PCR; for antiviral potency, SAR comparison (in words): qRT-PCR and titration in infected PAMs, compared with B7, B7-A4 or G7
Experimental: PAMs were cultivated in 12-well plates and infected with PRRSV NADC30 strain or Lelystad strain at MOI=0.05 for 1 h. Cells were then incubated with 15 μM B7 analogues for 24 h at 37° C. RNAs were extracted from the PAMs for quantitative reverse transcription-PCR (qRT-PCR) using RNeasy Mini Kits (Qiagen, MD, USA) and supernatants of cells were collected PRRSV titration assay.
RNAs isolated from infected PAMs were reversely transcribed to cDNA using iScript™ cDNA Synthesis Kit (Bio-Rad Laboratories, CA, USA). Specific qRT-PCR primers for ORF7 gene of PRRSV NADC30 and Lelystad strains, and for porcine GAPDH are shown in the Table S2 qRT-PCR reaction was conducted with SYBR Green Supermix (Bimake, TX, USA) using the ABI 7500 Fast Platform (Thermo Fisher Scientific, MA, USA). GAPDH served as the house keeping gene for normalization.

[4] = biological target: T3, GFP-fusion CD163-SRCR5 (GFP-fused SRCR5 domain of porcine CD163, recombinant, expressed in E. coli BL21 (DE3)) (Sus scrofa, UniProt Q2VL90); experiment: Microscale thermophoresis (MST) assay: direct association of compounds with purified GFP-fused CD163-SRCR5; assay type: binding; details: Monolith NT.115, blue channel, values represent Mean, N=3
T3 construct: GFP and GFP-SRCR2 as controls
T3 sequence (Q2VL90 477-577 limits assumed): as the sequence (Q2VL90 477-577) above
Experimental: The amino acids within the LBP and loop 5-6 regions are underlined. […] B7 was placed in position 1 (Boxes) to show the potential disturbing of both conformations. […] B7 was placed in position 2 (Box) to show the potential disturbing of this conformation. […] Values represent Mean, N=3. […] Values represent Mean, N=3. […] Values represent Mean, N=3.
All chemicals (dissolved in 10 mM in DMSO) were designed and provided by Atomwise, Inc. (CA, USA). Compounds were further diluted in PBS (137 mM NaCl, 2.7 mM KCl, 8 mM Na2HPO4, and 2 mM KH2PO4, pH 7.4, Gibco, MA, USA) to 200 μM as the working solution. Pulmonary alveolar macrophages (PAMs) were harvested from healthy 4-6-month Landrace/Yorkshire pigs. Briefly, pig lungs were removed from euthanized pigs during necropsy and transferred on ice to the lab. 200 mL warm PBS with 200 U/mL penicillin and 200 μg/mL streptomycin was injected into trachea and reached major bronchi of both sides of the lungs. Lungs were then massaged and bronchoalveolar lavage fluid (BALF) was collected. PAMs were harvested from the BALF by centrifugation at 400×g for 15 min and washed in PBS twice. Fresh PAMs were counted and frozen in 90% FBS and 10% DMSO (Sigma-Aldrich, MO) in liquid nitrogen. PAMs were cultivated in RPMI-1640 (Gibco, MA) supplemented with 10% FBS, 2 mM Glutamax, 0.1 mM MEM Non-Essential Amino Acids, 1 mM sodium pyruvate, 100 U/mL penicillin and 100 μg/mL streptomycin, and 0.5 μg/mL Amphotericin B. SRCR5 domain of porcine CD163 receptor was amplified from cDNA of pig cells and inserted into pBiFC-VN155 (I152L). PRRSV GP2a and GP4 were amplified from reverse-transcribed genome of PRRSV VR2332 strain and cloned into pBiFC-VC155 vector as previously described (Huang et al., Virol J 17, 116, 2020). Porcine CD163 was cloned into pMXs vector (Cell Biolabs, CA, USA). For protein purification, […] were cloned into pET28b-GFP (Addgene, MA, USA).
The recombinant pET28b-GFP-SRCR2/SRCR5 constructs were transformed into Escherichia coli strain BL21 (DE3) (New England Biolabs, MA, USA). The transformed clones were cultured at 37° C. in LB broth with […] kanamycin, induced by adding 1 mM isopropyl β-D-1-thiogalactopyranoside at optical density of 0.6-0.8, and then incubated at 37° C. for 3 h. For protein purification, cells were pelleted and resuspended in xTractor Buffer containing DNAse I, lysozyme solution, and Protease Inhibitor Cocktail (Takara Bio USA, Inc., CA). The suspension was sonicated and centrifuged. […]
The purified GFP, GFP-fused SRCR2 or SRCR5 proteins were mixed with serially diluted compounds. The mixtures were loaded to capillaries and the affinity was measured by Monolith NT.115 (NanoTemper Technologies, Inc., CA, USA) at corresponding MST power with the blue channel. […]

| Structure (SMILES) | Average GP4 (relative fluorescence intensity, SRCR5/GP4 BiFC) [1] | Average GP2a (relative fluorescence intensity, SRCR5/GP2a BiFC) [2] | inhibitory effect against PRRSV infection (in words) [3] | antiviral potency, SAR comparison (in words) [3] | Kd [4] | interference with the PPI between GP4/SRCR5 (in words) [1] | inhibition of the PPI between SRCR5-VN and GP2a-VC at pH 6.0 (in words) ([2]; pH 6.0) |
| --- | --- | --- | --- | --- | --- | --- | --- |
| COc1ccc(Nc2nc3ccccc3nc2NS(=O)(=O)c2ccc(F)cc2C)cc1 [A1] | 0.89 | 0.63 | – | – | – | – | – |
| COc1ccc(Nc2nc3ccccc3nc2NS(=O)(=O)c2ccc(F)cc2C)cc1Cl [A3] | 0.43 | 0.06 | mild | significantly increased antiviral effect | – | – | – |
| Cc1ccc(S(=O)(=O)Nc2nc3ccccc3nc2Nc2cccc(S(=O)(=O)N3CCCC3)c2)cc1 [A7] | 0.53 | 0.07 | strong | significant drop of its antiviral potency | – | – | – |
| O=S(=O)(Nc1nc2ccccc2nc1Nc1cccc(S(=O)(=O)N2CCCC2)c1)c1ccccc1 [C6] | 0.34 | 0.19 | mild | – | – | – | – |
| Cc1cccc(S(=O)(=O)Nc2nc3ccccc3nc2Nc2cccc(F)c2)c1 [C10] | 0.63 | 0.33 | – | – | – | – | – |
| Cc1ccc(S(=O)(=O)Nc2nc3ccccc3nc2Nc2cccc(S(=O)(=O)N3CCCCC3)c2)cc1 [Compound B7-A4] | – | – | – | – | 22.9 µM | – | – |
| COc1ccc(NS(=O)(=O)c2cccc(Nc3nc4ccccc4nc3NS(=O)(=O)c3ccc(F)cc3C)c2)cc1 [Compound E3] | – | – | – | – | 330 µM | – | – |
| Cc1cccc(S(=O)(=O)Nc2nc3ccccc3nc2Nc2cccc(S(=O)(=O)N3CCCCC3)c2)c1 [Compound E10] | – | – | – | – | 38 µM | – | – |
| COc1ccccc1NS(=O)(=O)c1cccc(Nc2nc3ccccc3nc2NS(=O)(=O)c2ccc(F)cc2C)c1 [Compound F9] | – | – | – | – | 24.7 µM | – | – |
| Cc1ccccc1S(=O)(=O)Nc1nc2ccccc2nc1Nc1ccc(S(=O)(=O)N2CCOCC2)cc1 [D2] | 0.23 | 0.07 | – | mildly but significantly decreased | – | – | – |
| COc1ccc(NS(=O)(=O)c2cccc(Nc3nc4ccccc4nc3NS(=O)(=O)c3ccc(F)cc3C)c2)cc1 [E3] | 0.59 | 0.10 | low activity | near complete loss of antiviral-potency | – | – | – |
| Cc1cc(F)ccc1S(=O)(=O)Nc1nc2ccccc2nc1Nc1cccc(Cl)c1C [E4] | 0.74 | 0.12 | – | – | – | – | – |
| Cc1cc(F)ccc1S(=O)(=O)Nc1nc2ccccc2nc1Nc1cccc(Cl)c1 [E7] | 0.69 | 0.10 | – | – | – | – | – |
| Cc1cccc(S(=O)(=O)Nc2nc3ccccc3nc2Nc2cccc(S(=O)(=O)N3CCCCC3)c2)c1 [E10] | 0.06 | 0.06 | – | no change in antiviral potency | – | – | – |
| Cc1ccccc1Nc1nc2ccccc2nc1NS(=O)(=O)c1ccc(F)cc1C [F7] | 0.96 | 0.30 | – | – | – | – | – |
| COc1ccccc1NS(=O)(=O)c1cccc(Nc2nc3ccccc3nc2NS(=O)(=O)c2ccc(F)cc2C)c1 [F9] | 0.07 | 0.03 | – | did not change at all | – | – | – |
| Cc1cc(F)ccc1S(=O)(=O)Nc1nc2ccccc2nc1Nc1cccc(Cl)c1Cl [F12] | 0.63 | 0.31 | strong | significantly increased antiviral effect; also recorded: antiviral potency nearly identical to B7 | – | does not effectively interfere | inhibit the PPI |
| O=S(=O)(Nc1nc2ccccc2nc1Nc1cccc(S(=O)(=O)N2CCCCC2)c1)c1ccccc1 [G4] | 0.06 | 0.04 | – | significantly decreased its antiviral potency | – | – | – |
| Cc1cc(F)ccc1S(=O)(=O)Nc1nc2ccccc2nc1Nc1ccccc1 [G7] | 0.71 | 0.15 | – | much lower antiviral effect compared with B7; also recorded: obvious loss of the antiviral activity compared with B7 | – | – | – |
| O=S(=O)(Nc1nc2ccccc2nc1Nc1ccc(Cl)c(S(=O)(=O)N2CCOCC2)c1)c1ccccc1 [G10] | 0.80 | 0.13 | – | mildly but significantly decreased | – | – | – |
| Cc1ccc(Nc2nc3ccccc3nc2NS(=O)(=O)c2ccc(F)cc2C)cc1 [H1] | 0.94 | 0.24 | – | – | – | – | – |

Source: patent US20240342167A1, “INHIBITORS OF PORCINE REPRODUCTIVE AND RESPIRATORY SYNDROME VIRUS” (University of Connecticut, priority 2023, published 2024)
